Test results from patent publication US4698352A, “4-oxo-1,4-dihydronicotinic acid derivatives, salts thereof, and antibacterial agents containing the same” (Toyama Chemical Co., Ltd., priority 1982, dated 1987).
≈ marks a conversion by molar mass, not a printed value. Read-outs that look alike come from different tables or passages of the source.

Columns and labels:
Assay in all cases: Antibacterial activity (MIC), agar dilution
Type in all cases: cell-based
E. coli NIHJ JC-2 = conditions: Escherichia coli, NIHJJC2, 20 h, E. coli NIHJ JC-2; 10^6 cells per ml; 37° C., 20 hours; read-out: MIC
Text: (§1) The amount of bacteria inoculated was 10^4 cells per plate (10^6 cells per ml).

E. coli TK-111 = conditions: Escherichia coli, TK111, 20 h, E. coli TK-111; 10^6 cells per ml; 37° C., 20 hours; read-out: MIC
Text: as §1

Ent. cloacae IID977 = conditions: Enterobacter cloacae, IID977, 20 h, Ent. cloacae IID977; 10^6 cells per ml; 37° C., 20 hours; read-out: MIC
Text: as §1

Kl. pneumoniae Y-41 = conditions: Klebsiella pneumoniae, Y41, 10^6 cells per ml, 37° C., 20 hours, read-out: MIC
Text: as §1

Kl. pneumoniae Y-50 = conditions: Klebsiella pneumoniae, Y50, 20 h, 10^6 cells per ml, 37° C., read-out: MIC
Text: as §1

Pro. mirabilis T-111 = conditions: Proteus mirabilis, 37° C.
Text: as §1

Pro. morganii T-216 = conditions: Morganella morganii, 37° C.
Text: as §1

Pro. vulgaris GN3027 = conditions: Proteus vulgaris, GN3027, 20 h, Pro. vulgaris GN3027; 10^6 cells per ml; 37° C., 20 hours; read-out: MIC
Text: as §1

Ps. aeruginosa IFO3445 = conditions: Pseudomonas aeruginosa; Ps. aeruginosa IFO3445; 10^6 cells per ml; 37° C., 20 hours; read-out: MIC
Text: as §1

Ps. aeruginosa S-68 = conditions: Pseudomonas aeruginosa
Text: as §1

St. aureus FDA209P = conditions: Staphylococcus aureus, FDA209P, 20 h
Text: as §1

E. coli TK-3* = conditions: Escherichia coli, 20 h, E. coli TK-3, penicillinase-producing; 10^6 cells per ml; read-out: MIC
Text: as §1
(§2) * Penicillinase-producing bacteria

Kl. pneumoniae Y-4* = conditions: Klebsiella pneumoniae, 20 h, Kl. pneumoniae Y-4, penicillinase-producing; 10^6 cells per ml; read-out: MIC
Text: as §1, §2

Ps. aeruginosa GN3379* = conditions: Pseudomonas aeruginosa, Ps. aeruginosa GN3379, penicillinase-producing, 10^6 cells per ml
Text: as §1, §2

St. aureus F-137* = conditions: Staphylococcus aureus, 20 h
Text: as §1, §2

E. coli GN5482** = conditions: Escherichia coli, 20 h; E. coli GN5482, cephalospolinase-producing; 10^6 cells per ml; read-out: MIC
Text: as §1
(§3) ** Cephalospolinase-producing bacteria

Pro. vulgaris GN76** = conditions: Proteus vulgaris, 20 h; Pro. vulgaris GN76, cephalospolinase-producing; 10^6 cells per ml; read-out: MIC
Text: as §1, §3

Ps. aeruginosa GN918** = conditions: Pseudomonas aeruginosa, 20 h; Ps. aeruginosa GN918, cephalospolinase-producing; 10^6 cells per ml; read-out: MIC
Text: as §1, §3

Aci. antitratus A-6 = conditions: 20 h, Aci. antitratus A-6; 10^6 cells per ml; 37° C., 20 hours; read-out: MIC
Text: as §1

[1] = T111, 10^6 cells per ml, 20 hours, read-out: MIC
[2] = T216, 10^6 cells per ml, 20 hours, read-out: MIC
[3] = S68, Ps. aeruginosa S-68, 10^6 cells per ml, 37° C., 20 hours, read-out: MIC
[4] = St. aureus FDA209P, 10^6 cells per ml, 37° C., 20 hours, read-out: MIC
[5] = St. aureus F-137, penicillinase-producing, 10^6 cells per ml, read-out: MIC

In the case of `Cc1cc(F)ccc1-n1cc(C(=O)O)c(=O)cc1C1CC=CCC1` (stereo not drawn), the MIC (E. coli NIHJ JC-2) is reported as 6.25 µg/mL (≈ 19.1 µM), the MIC (E. coli TK-111) is reported as 1.56 µg/mL (≈ 4.77 µM) and the MIC (Ent. cloacae IID977) is reported as 12.5 µg/mL (≈ 38.2 µM). The MIC (Kl. pneumoniae Y-41) was 25 µg/mL (≈ 76.4 µM), the MIC (Kl. pneumoniae Y-50) was 3.13 µg/mL (≈ 9.56 µM) and the MIC (Pro. mirabilis T-111; [1]) was 25 µg/mL (≈ 76.4 µM). The MIC (Pro. morganii T-216; [2]) was 12.5 µg/mL (≈ 38.2 µM), the MIC (Pro. vulgaris GN3027) was 0.39 µg/mL (≈ 1.19 µM) and the MIC (Ps. aeruginosa IFO3445) was 100 µg/mL (≈ 305 µM). For the same compound, the MIC (Ps. aeruginosa S-68; [3]) was 50 µg/mL (≈ 153 µM), the MIC (St. aureus FDA209P) was 3.13 µg/mL (≈ 9.56 µM) and the MIC (E. coli TK-3*) was 12.5 µg/mL (≈ 38.2 µM). For the same compound, the MIC (Kl. pneumoniae Y-4*) was 25 µg/mL (≈ 76.4 µM), the MIC (Ps. aeruginosa GN3379*; 20 h, read-out: MIC) was 100 µg/mL (≈ 305 µM) and the MIC (St. aureus F-137*) was 3.13 µg/mL (≈ 9.56 µM). For the same compound, the MIC (E. coli GN5482**) was 0.78 µg/mL (≈ 2.38 µM), the MIC (Pro. vulgaris GN76**) was 6.25 µg/mL (≈ 19.1 µM) and the MIC (Ps. aeruginosa GN918**) was 12.5 µg/mL (≈ 38.2 µM).

Compound `O=C(O)c1cn(-c2ccc(O)cc2F)c(-c2ccc(N3CCCC3)cc2)cc1=O` has an MIC (Aci. antitratus A-6) of no more than 0.05 µg/mL, an MIC (E. coli NIHJ JC-2) of 0.2 µg/mL (≈ 0.507 µM) and an MIC (E. coli TK-111) of no more than 0.05 µg/mL. The MIC (Ent. cloacae IID977) was 0.78 µg/mL (≈ 1.98 µM), the MIC (Kl. pneumoniae Y-41) was 1.56 µg/mL (≈ 3.96 µM) and the MIC (Kl. pneumoniae Y-50) was 0.39 µg/mL (≈ 0.989 µM). For the same compound, the MIC (Pro. mirabilis T-111; [1]) was 0.78 µg/mL (≈ 1.98 µM), the MIC (Pro. morganii T-216; [2]) was 0.78 µg/mL (≈ 1.98 µM) and the MIC (Pro. vulgaris GN3027) was 0.2 µg/mL (≈ 0.507 µM). The MIC (Ps. aeruginosa IFO3445) was 6.25 µg/mL (≈ 15.8 µM), the MIC (Ps. aeruginosa S-68; S68, 20 h) was 3.13 µg/mL (≈ 7.94 µM) and the MIC (St. aureus FDA209P; [4]) was no more than 0.05 µg/mL. It also gave an MIC (Kl. pneumoniae Y-4*) of 3.13 µg/mL (≈ 7.94 µM), an MIC (Ps. aeruginosa GN3379*; GN3379, 20 h) of 3.13 µg/mL (≈ 7.94 µM) and an MIC (St. aureus F-137*; [5]) of no more than 0.05 µg/mL. For the same compound, the MIC (E. coli GN5482**) was no more than 0.05 µg/mL, the MIC (Pro. vulgaris GN76**) was 0.78 µg/mL (≈ 1.98 µM) and the MIC (Ps. aeruginosa GN918**) was 0.78 µg/mL (≈ 1.98 µM).

With `Cc1nc2ccc(-c3cc(=O)c(C(=O)O)cn3-c3ccc(O)cc3)cc2s1` the MIC (E. coli NIHJ JC-2) was 0.39 µg/mL (≈ 1.03 µM), the MIC (E. coli TK-111) was 0.2 µg/mL (≈ 0.529 µM) and the MIC (Ent. cloacae IID977) was 1.56 µg/mL (≈ 4.12 µM). It also gave an MIC (Kl. pneumoniae Y-41) of 3.13 µg/mL (≈ 8.27 µM), an MIC (Kl. pneumoniae Y-50) of 0.39 µg/mL (≈ 1.03 µM) and an MIC (Pro. mirabilis T-111; T111, 20 h, 10^6 cells per ml) of 3.13 µg/mL (≈ 8.27 µM). The MIC (Pro. morganii T-216; T216, 20 h, 10^6 cells per ml) was 3.13 µg/mL (≈ 8.27 µM), the MIC (Pro. vulgaris GN3027) was 0.39 µg/mL (≈ 1.03 µM) and the MIC (Ps. aeruginosa IFO3445) was 25 µg/mL (≈ 66.1 µM). For the same compound, the MIC (Ps. aeruginosa S-68; [3]) was 12.5 µg/mL (≈ 33 µM), the MIC (St. aureus FDA209P; [4]) was 0.39 µg/mL (≈ 1.03 µM) and the MIC (E. coli TK-3*) was 0.78 µg/mL (≈ 2.06 µM). It also gave an MIC (Kl. pneumoniae Y-4*) of 3.13 µg/mL (≈ 8.27 µM), an MIC (Ps. aeruginosa GN3379*; 20 h, read-out: MIC) of 12.5 µg/mL (≈ 33 µM) and an MIC (St. aureus F-137*; [5]) of 0.39 µg/mL (≈ 1.03 µM). The MIC (E. coli GN5482**) was no more than 0.05 µg/mL, the MIC (Pro. vulgaris GN76**) was 0.78 µg/mL (≈ 2.06 µM) and the MIC (Ps. aeruginosa GN918**) was 1.56 µg/mL (≈ 4.12 µM).
